Laboratory results as given in ChEMBL document CHEMBL1201862, “PubChem BioAssay data set” (2004).
Where a name gives a salt, the structure may show the parent alone.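 Each compound was tested at five concentrations against cells in 96-well plates for 48 hours. GI50 is the concentration that inhibits growth by half.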 Activity calls are given as the source filed them. Cut-off read from the data, not from the text of the source: active = GI50 up to about 1.1 µM and inactive = higher.

Experiments:
Test in all cases: NCI tumour cell line growth inhibition, 48 h
[1] = system: Malme-3M
[2] = system: HCC 2998
[3] = system: DU-145
[4] = system: CAKI-1
[5] = system: NCI/ADR-RES
[6] = system: ACHN
[7] = system: LOX IMVI
[8] = system: RXF 393
[9] = system: HOP-92
[10] = system: MDA-MB-231
[11] = system: SK-MEL-5
[12] = system: HCT-116
[13] = system: SF-268
[14] = system: UACC-62
[15] = system: SNB-75
[16] = system: UACC-257
[17] = system: NCI-H226
[18] = system: COLO 205
[19] = system: SR
[20] = system: KM12

Structure (SMILES) | GI50 [1] | GI50 [2] | GI50 [3] | GI50 [4] | GI50 [5] | GI50 [6] | GI50 [7] | GI50 [8] | GI50 [9] | GI50 [10] | GI50 [11] | GI50 [12] | GI50 [13] | GI50 [14] | GI50 [15] | GI50 [16] | GI50 [17] | GI50 [18] | GI50 [19] | GI50 [20]
Cc1ccc2nc(/C=N/c3ccccc3Cl)cc(C)c2c1 | 20.8 µM (inactive) | 47.3 µM (inactive) | 46.7 µM (inactive) | 30.8 µM (inactive) | 16.8 µM (inactive) | 30.7 µM (inactive) | 8.61 µM (inactive) | 14.5 µM (inactive) | 25.4 µM (inactive) | 13.2 µM (inactive) | 14.9 µM (inactive) | 4.21 µM (inactive) | 16 µM (inactive) | 14.6 µM (inactive) | 19.9 µM (inactive) | 15.8 µM (inactive) | 20.6 µM (inactive) | 50.8 µM (inactive) | 2.81 µM (inactive) | 17.4 µM (inactive)
CC(=O)OCC1OC(OCCCOP(=O)(OCCC#N)OCC2OC(n3cnc4c(N)ncnc43)C(OC(=O)c3ccccc3)C2OC(=O)c2ccccc2)C(OC(C)=O)C(OC(C)=O)C1OC(C)=O (stereo not given) | 1.06 µM (active) | > 100 µM (inactive) | > 100 µM (inactive) | > 100 µM (inactive) | > 100 µM (inactive) | > 100 µM (inactive) | > 100 µM (inactive) | > 100 µM (inactive) | > 100 µM (inactive) | > 100 µM (inactive) | > 100 µM (inactive) | > 100 µM (inactive) | > 100 µM (inactive) | > 100 µM (inactive) | > 75 µM (inactive) | > 100 µM (inactive) | > 100 µM (inactive) | > 100 µM (inactive) | > 100 µM (inactive) | > 100 µM (inactive)
CCN(CC)c1ccc(/C=C/C2=NN(c3cccc(S(=O)(=O)O)c3)C3(C2)SCC(=O)N3c2nc3ccccc3s2)cc1 (stereo not given) | 24.7 µM (inactive) | 35.2 µM (inactive) | 27.4 µM (inactive) | 76.6 µM (inactive) | > 100 µM (inactive) | 25.8 µM (inactive) | 45.6 µM (inactive) | > 100 µM (inactive) | 44.9 µM (inactive) | 55.1 µM (inactive) | 21.1 µM (inactive) | 45.1 µM (inactive) | 40.5 µM (inactive) | 37.7 µM (inactive) | 74.3 µM (inactive) | 30.5 µM (inactive) | 16.8 µM (inactive) | 24.1 µM (inactive) | 26.4 µM (inactive) | 23.9 µM (inactive)
O=C1C=C(c2ccccc2)O/C1=C\C(=O)c1ccc(Cl)cc1 | 13.6 µM (inactive) | 28.3 µM (inactive) | 43.6 µM (inactive) | 18.1 µM (inactive) | 23.2 µM (inactive) | 16.1 µM (inactive) | 16.3 µM (inactive) | 17.7 µM (inactive) | 19.2 µM (inactive) | 18.1 µM (inactive) | 21.5 µM (inactive) | 16.4 µM (inactive) | 20 µM (inactive) | 15.6 µM (inactive) | 4.84 µM (inactive) | 18.2 µM (inactive) | 17.4 µM (inactive) | 16.3 µM (inactive) | 11.3 µM (inactive) | 34.4 µM (inactive)
CCc1nc(N)nc(N)c1-c1ccc(NC)c([N+](=O)[O-])c1 | 24.8 µM (inactive) | 3.56 µM (inactive) | 2.14 µM (inactive) | 0.767 µM (active) | 1.2 µM (inactive) | 0.594 µM (active) | 0.449 µM (active) | 16 µM (inactive) | 8.81 µM (inactive) | 27.2 µM (inactive) | 0.63 µM (active) | 0.219 µM (active) | 0.815 µM (active) | 0.531 µM (active) | 10.8 µM (inactive) | 18 µM (inactive) | 28.6 µM (inactive) | 4.84 µM (inactive) | 0.327 µM (active) | 2.76 µM (inactive)
c1ccc2c(c1)ccn2CCc1c[nH]c2ccccc12 | > 10 µM (inactive) | > 10 µM (inactive) | > 10 µM (inactive) | > 10 µM (inactive) | > 10 µM (inactive) | > 10 µM (inactive) | > 10 µM (inactive) | 9.31 µM (inactive) | > 10 µM (inactive) | > 10 µM (inactive) | > 10 µM (inactive) | > 10 µM (inactive) | > 10 µM (inactive) | > 10 µM (inactive) | > 10 µM (inactive) | > 10 µM (inactive) | 8.07 µM (inactive) | > 10 µM (inactive) | > 10 µM (inactive) | > 10 µM (inactive)
NC(=O)NC1NC(=O)NC1=O (stereo not given) [ALLANTOIN] | > 100 µM (inactive) | > 100 µM (inactive) | > 100 µM (inactive) | > 100 µM (inactive) | > 100 µM (inactive) | > 100 µM (inactive) | > 100 µM (inactive) | > 100 µM (inactive) | > 100 µM (inactive) | > 100 µM (inactive) | > 100 µM (inactive) | > 100 µM (inactive) | > 100 µM (inactive) | > 100 µM (inactive) | > 100 µM (inactive) | > 100 µM (inactive) | > 100 µM (inactive) | > 100 µM (inactive) | > 100 µM (inactive) | > 100 µM (inactive)
CN1CCC(CN2c3ccccc3Sc3ccccc32)C1 (stereo not given) [METHDILAZINE HYDROCHLORIDE] | 16.5 µM (inactive) | 10.1 µM (inactive) | 17.8 µM (inactive) | 14.7 µM (inactive) | 15.2 µM (inactive) | 14.7 µM (inactive) | 15 µM (inactive) | 3.5 µM (inactive) | 12.8 µM (inactive) | 14 µM (inactive) | 13.7 µM (inactive) | 13.9 µM (inactive) | 15.3 µM (inactive) | 12.8 µM (inactive) | 1.79 µM (inactive) | 11.8 µM (inactive) | 19.5 µM (inactive) | 11.5 µM (inactive) | 2.7 µM (inactive) | 17.9 µM (inactive)
